Source: patent US8691802B2, “Stabilized compositions comprising a therapeutically active agent and an oxidizing preservative” (Allergan, Inc., priority 2005, dated 2014)
Like-named read-outs stand apart in the source and are kept apart here.

Details: for Stabilized Chlorine Dioxide Concentration: ingredient added to proprietary brimonidine composition; for Stabilization of chlorine dioxide by the excipient (in words): proprietary brimonidine composition
Description: Each of the excipients was added, in the amounts shown, to a proprietary composition comprising brimonidine as a therapeutically active agent.

SMILES | Stabilized Chlorine Dioxide Concentration (0 Days) | Stabilized Chlorine Dioxide Concentration (7 Days) | Stabilized Chlorine Dioxide Concentration (14 Days) | Stabilization of chlorine dioxide by the excipient (in words)
O=C(O)CN(CCN(CC(=O)O)CC(=O)O)CC(=O)O [EDTA] | 44 ppm | 2 ppm | 0 ppm | do not stabilize
NCCN [Ethylene diamine] |  |  |  | do not stabilize
CC(O)C(=O)[O-].[Na+] (stereo not shown) [Sodium Lactate] | 45 ppm | 40 ppm | 37 ppm | 
CC(=O)C(=O)[O-].[Na+] [Sodium Pyruvate] |  |  |  | similarly ineffective
O=C([O-])C(=O)[O-].[Na+].[Na+] [Sodium Oxalate] | 39 ppm | 38 ppm | 35 ppm | similarly ineffective
O=C([O-])/C(O)=C(\O)C(=O)[O-].[Na+].[Na+] [Sodium Dihydroxyfurmarate] | 37 ppm | 13 ppm | 0 ppm | 
O=C[O-].[Na+] [Sodium Formate] | 42 ppm | 40 ppm | 36 ppm | 
